Assay results from ChEMBL document CHEMBL1135131, “Nicotinanilides as inhibitors of neutrophil chemotaxis” (Bioorg Med Chem Lett, 2002).

Experiments:
[1] = biological target: T1, Interleukin-8 receptors, CXCR1/CXCR2 (Homo sapiens, UniProt P25025+P25024); test: Inhibition against GRO-alpha driven human neutrophil chemotaxis; format: functional
T1 sequence (P25025 whole entry): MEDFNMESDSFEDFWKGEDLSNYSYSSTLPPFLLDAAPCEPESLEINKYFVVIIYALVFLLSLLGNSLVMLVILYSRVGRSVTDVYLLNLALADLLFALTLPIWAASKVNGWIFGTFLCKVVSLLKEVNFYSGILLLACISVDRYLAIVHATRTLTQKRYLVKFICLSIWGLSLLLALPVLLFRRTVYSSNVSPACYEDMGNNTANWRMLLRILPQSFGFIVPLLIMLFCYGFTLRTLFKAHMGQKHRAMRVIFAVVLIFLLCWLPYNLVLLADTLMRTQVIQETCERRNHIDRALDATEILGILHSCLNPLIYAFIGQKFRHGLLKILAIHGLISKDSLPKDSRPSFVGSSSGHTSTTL
T1 sequence (P25024 whole entry): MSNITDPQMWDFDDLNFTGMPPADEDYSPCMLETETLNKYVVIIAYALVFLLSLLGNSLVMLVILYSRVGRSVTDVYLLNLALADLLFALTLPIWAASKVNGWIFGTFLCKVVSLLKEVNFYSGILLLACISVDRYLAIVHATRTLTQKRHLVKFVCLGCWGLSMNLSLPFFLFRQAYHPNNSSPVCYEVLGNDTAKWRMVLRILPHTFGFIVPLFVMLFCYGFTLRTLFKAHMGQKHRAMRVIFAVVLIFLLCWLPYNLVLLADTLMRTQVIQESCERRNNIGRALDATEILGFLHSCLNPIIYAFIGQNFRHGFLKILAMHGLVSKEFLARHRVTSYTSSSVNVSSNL

[2] = Inhibition against formyl-methionyl-leucyl (FMLP) phenylalanine driven human neutrophil chemotaxis; format: functional
[3] = biological target: T2, C-X-C chemokine receptor type 2 (Homo sapiens, UniProt P25025); test: Displacement of [125I]IL-8 from CHO cell membranes expressing human […] chemokine receptor 2 (CXCR2 filter mat binding assay)
T2 sequence (P25025 whole entry): T1 sequence (P25025 whole entry)

[4] = biological target: T2, C-X-C chemokine receptor type 2; test: Displacement of [125I]IL-8 from CHO cell membranes expressing human […] chemokine receptor 2

| IC50 [1] | IC50 [2] | IC50 [3] | IC50 [4] | Compound |
| --- | --- | --- | --- | --- |
| > 20000 nM | – | – | – | O=C(O)CCSc1ccc(C(=O)Nc2ccc(F)cc2)cn1 |
| 220 nM | > 40000 nM | – | – | O=C(COc1ccc(C(=O)Nc2ccc(F)cc2)cn1)Nc1cccnc1 |
| 360 nM | – | – | – | COC(=O)COc1ccc(NC(=O)c2ccc(F)cc2)cn1 |
| 220 nM | > 40000 nM | – | – | O=C(COc1ccc(C(=O)Nc2ccc(F)cc2)cn1)OC1CCCCC1 |
| 760 nM | > 40000 nM | – | – | COC(=O)CCSc1ccc(C(=O)Nc2ccc(F)cc2)cn1 |
| 94 nM | > 40000 nM | – | – | O=C(COc1ccc(C(=O)Nc2ccc(F)cc2)cn1)OCc1ccccc1 |
| > 20000 nM | – | – | – | O=C(COc1ccc(C(=O)Nc2ccc(F)cc2)cn1)NC1CCCC1 |
| 43 nM | – | – | – | O=C(CSc1ccc(C(=O)Nc2ccc(F)cc2)cn1)OCc1cccc(F)c1 |
| 110 nM | > 40000 nM | – | – | COC(=O)COc1ccc(C(=O)Nc2ccc(F)cc2)cn1 |
| > 20000 nM | – | – | – | CNC(=O)COc1ccc(C(=O)Nc2ccc(F)cc2)cn1 |
| 200 nM | > 40000 nM | – | – | CC(C)CCOC(=O)COc1ccc(C(=O)Nc2ccc(F)cc2)cn1 |
| 46 nM | > 40000 nM | – | – | CCCOC(=O)CSc1ccc(C(=O)Nc2ccc(F)cc2)cn1 |
| 50 nM | > 40000 nM | – | – | O=C(COc1ccc(C(=O)Nc2ccc(F)cc2)cn1)OCc1cccc(F)c1 |
| 160 nM | > 40000 nM | – | – | CCOC(=O)COc1ccc(C(=O)Nc2ccc(F)cc2)cn1 |
| > 20000 nM | – | 1200 nM | – | O=C(O)CSc1ccc(C(=O)Nc2ccc(F)cc2)cn1 |
| 1000 nM | > 40000 nM | – | – | O=C(COc1ccc(C(=O)Nc2ccc(F)cc2)cn1)Nc1ccccc1 |
| 5100 nM | – | – | – | O=C(O)CCCSc1ccc(C(=O)Nc2ccc(F)cc2)cn1 |
| 410 nM | – | – | – | O=C(COc1ccc(C(=O)Nc2ccc(F)cc2)cn1)Oc1ccccc1 |
| 12500 nM | > 40000 nM | – | – | CN(C(=O)COc1ccc(C(=O)Nc2ccc(F)cc2)cn1)c1ccccc1 |
| 2700 nM | > 40000 nM | – | – | O=C(COc1ccc(C(=O)Nc2ccc(F)cc2)cn1)Nc1cccc(Br)c1 |
| 680 nM | > 40000 nM | – | – | O=C(COc1ccc(C(=O)Nc2ccc(F)cc2)cn1)OCCCCC1CCCCC1 |
| 42 nM | – | – | 32 nM | COC(=O)CSc1ccc(C(=O)Nc2ccc(F)cc2)cn1 |
| 83 nM | – | – | – | O=C(CSc1ccc(C(=O)Nc2ccc(F)cc2)cn1)OCc1ccc(Br)cc1 |
